Read-outs that look alike come from different tables or passages of the source.

In data set [1] the test system is fungal species. The experiment in a line: 30-III fungal test on 1"X1" chip of dried latex, 7 days. The class given is cell-based. The conditions noted are these: 7 day incubation, FIG. 5. The text has this:
FIG. 5 is a graph showing the results of a 30-III fungal test, based on making a 1″X1″ chip of the dried latex, inoculating the fungal species directly on to the sample, and then observing its growth after 7 days.
The 30-III fungal test was based on making a 1″X1″ chip of the dried latex and inoculating the fungal species directly on to the sample and then observing its growth after 7 days.

Data set [2] can be described thus: Stability of additive under polymerization conditions. The following applies: incorporated in relatively high amounts. The class given is physicochemical. The text has this: Ideally, the materials are substantially unreactive during the polymerization conditions, so they are not degraded during polymerization. In some embodiments, low levels of additive might be observed, whether due to degradation, or difficulty in extraction from the polymer latex. In any case, retention of the additive in the latex leads to retention of antifungal properties in the finished paper.
The polymerization temperature was investigated as a potential contributor to degradation, and it was kept as low as was feasible (typically <70° C.). The samples were stripped at the end of polymerization to the desired solids content.

Data set [3] relates to fungal species. The experiment in a line: ASTM D-3273 second round test of coated paper, 28 days, spores in humidity chamber. The class given is cell-based. The conditions noted are these: increased coating thickness, FIG. 6. Here is the method: FIG. 6 is a graph showing the results of a second round of testing of coated paper samples, tested according to ASTM D-3273 over a period of 28 days. In this study, the fungal species were not directly inoculated on the surface, but rather, were maintained in the humidity chamber as spores that would then land on the surface of the coated paper.
A second round of testing was performed using an increased coating thickness to ensure full coverage of the paper surface. The second round of testing of the coated paper samples were tested according to ASTM D-3273. In this study, the duration remained the same (28 days), but the fungal species were not directly inoculated on the surface. Rather, they were maintained in the humidity chamber as spores that would then land on the surface of the coated paper as in a real world example. The results of this study are outlined in FIG. 6.

The nature of data set [4]: Solubility of additives used in polymerization. It is filed as physicochemical.
Where [5] appears, read: additives used in polymerization, solubility in monomer or water.

In the case of `Cc1ccc(S(=O)(=O)C(I)I)cc1` [Amical AF, Diiodomethyltoluyl sulfone], in the data set on fungal species [1], the “Fungal inhibition, 30-III test” value is “some fungal inhibition”. Further, the Degradation during polymerization entry in data set [2] is “degraded”. Also, the “Antifungal effectiveness, ASTM D-3273” value in the data set with fungal species [3] is “effective”. Further, the Solubility entry in data set [4] (setting [5]) was “Limited”.

Regarding `[Na+].[O-]c1ccccc1-c1ccccc1` [Microban P2, Sodium orthophenyl phenate], in data set [4] (setting [5]), the Solubility result is given as “Solid. Water”.

In the case of `CCCC1COC(Cn2cncn2)(c2ccc(Cl)cc2Cl)O1` (stereo not shown) [Microban PZ, Propiconazole], the Solubility result in data set [4] is recorded as “Fairly soluble”.

With `CC(C)(C)C(O)(CCc1ccc(Cl)cc1)Cn1cncn1` (stereo not shown) [Microban TZ, Tebuconazole], in data set [4] (setting [5]), the Solubility result is given as “Fairly soluble”.

Turning to `Oc1cc(Cl)ccc1Oc1ccc(Cl)cc1Cl` [Triclosan, Chlorodiphenyl ether], the Solubility entry in data set [4] (setting [5]) is given as “Solid. Fairly”.

Regarding Zinc pyrithione [Microban Z01], the “Fungal inhibition, 30-III test” value in the data set on fungal species [1] is recorded as “performed well”. The “Antifungal effectiveness, ASTM D-3273” value in the data set with fungal species [3] is recorded as “did not perform well”.

For the origin of these results see US20080182125A1, “Cationic latex as a carrier for bioactive ingredients and its use in wallboard manufacture” (priority 2006, published 2008).
